The subject of one assay is MDA-MB-231. In words: CCK-8 cell viability assay, MDA-MB-231. It is filed as cell-based. As to conditions: Homo sapiens; CCK-8, MDA-MB-231, 2-day or 3-day incubation, cytotoxic effect. On the procedure: (§1) The effect of test compounds on cell viability is determined using the CCK-8 assay kit (Dojindo CK04-1000) according to the following protocol. The human cancer cell lines (e.g., A549, HepG2, JeKo-1, MDA-MB-231, etc.) and non-cancer human cell lines (e.g., HEK-293, HaCaT, etc.), are seeded at 20,000 cells per well in a 96-well plate. After 1 day, the cells are treated with test compounds at various final concentrations (e.g., 10 nM, 31.6 nM, 100 nM, 316 nM, 1 μM, 3.16 μM, 10 μM, 20 μM, etc.). After a 2-day or 3-day incubation period, 10 μL of CCK-8 solution, which contains the WST-8 dye, is added to each well according to the kit manufacturer's protocol. After incubation for 1-4 hours, the absorbance at 450 nm is measured using a microplate reader. The absorbance at 450 nm measures the amount of WST-8 that is reduced to WST-8 formazan by cellular dehydrogenases, which is directly proportional to the number of living cells. The cytotoxic effect of test compounds at different concentrations is calculated by subtracting from 1 the ratio of absorbance of the compound-treated sample at 450 nm to that of the no-compound, solvent only (DMSO)-treated sample. A higher number indicates a greater cytotoxic effect of the test compound on cells (corresponding to a greater reduction in cellular dehydrogenase activity), and vice versa. The IC50 values for the cytotoxic effect of each test compound in A549, HepG2, JeKo-1, and/or MDA-MB-231 cells are determined by plotting a dose-response curve to calculate the concentration of test compound that produces half of the maximum cytotoxic effect. The cytotoxic effect and IC50 of test compounds are also measured in a non-cancer human cell line (e.g., HEK-293, and/or HaCaT) as a proxy for healthy cells to determine the therapeutic window of the test compounds (i.e., the concentration range at which the test compounds selectively kill cancer cells but not healthy cells). The therapeutic index of a test compound is defined herein as its IC50 in HEK-293 cells divided by its IC50 in HepG2 cells.
In general terms: Tetrazolium dyes change colour on reduction, which living cells bring about.

In another assay the test system is JeKo-1. Briefly: CCK-8 cell viability assay, JeKo-1. It is filed as cell-based. The conditions noted are these: Homo sapiens; CCK-8, JeKo-1, 2-day or 3-day incubation, cytotoxic effect. Here is the method:
as §1

In the next assay the test system is A549. Briefly: CCK-8 cell viability assay, A549. It is filed as cell-based. As to conditions: Homo sapiens; CCK-8, A549, 2-day or 3-day incubation, cytotoxic effect.
For assay [1], the system named is caspase 3/7 activation in HepG2. In words: ApoTox-Glo Triplex assay, caspase 3/7 activation in HepG2. It is filed as cell-based, human. The conditions noted are these: vs DMSO.
Description: The effects of test compounds on cell viability and apoptosis are determined using the ApoTox-Glo Triplex assay kit (Promega G6320) according to the following protocol. The human cancer cell line (e.g., HepG2) and a non-cancer human cell line (e.g., HEK-293), are seeded at 20,000 cells per well in a 96-well plate. After 1 day, the cells are treated with test compounds at various final concentrations (e.g., 10 nM, 31.6 nM, 100 nM, 316 nM, 1 μM, 3.16 μM, 10 μM, 20 μM, etc.). After a 2-day incubation period, the ApoTox-Glo Triplex assay is performed according to the kit manufacturer's protocol. In brief, 20 μL of viability/cytotoxicity reagent containing both GF-AFC substrate (cell-permeant substrate to measure live-cell protease activity) and bis-AAF-R110 substrate (cell-impermeant substrate to measure dead-cell protease activity) is added to each sample, and briefly mixed by orbital shaking (300-500 rpm for ˜30 seconds). After incubation for 30 minutes at 37° C., the fluorescence signal is measured at two wavelength sets (400Ex/505Em) and (485Ex/520Em) to assess live-cell protease activity and dead-cell protease activity respectively. Following the measurement of the live-cell and dead-cell protease activities, 25 μl of Caspase-Glo 3/7 Reagent containing a luminogenic DEVD-peptide substrate for caspase-3/7 and thermostable luciferase is added to each sample, and briefly mixed by orbital shaking (1300-1500 rpm for ˜30 seconds). After incubation for 30 minutes at room temperature, the luminescent signal is measured using a microplate reader. The luminescent signal directly correlates with caspase-3/7 activity, which is a key indicator of apoptosis.
The fold-change of caspase 3/7 activation is calculated by dividing the luminescence signal of the compound-treated sample with that of the no-compound, solvent only (DMSO)-treated sample.
A further assay deals with HepG2. In words: ApoTox-Glo Triplex assay (live-dead ratio), HepG2. It is filed as cell-based. As to conditions: Homo sapiens, 48 h, HepG2, 2-day incubation.
Another assay deals with MYC protein. In words: MYC HTRF assay, MYC protein level in human cell lines. It is filed as cell-based. As to conditions: about 20 μM, 2-day incubation, human cell lines (e.g., A549, HepG2), vs DMSO-treated sample. Here is the method:
The MYC homogenous time-resolved fluorescence (HTRF) assay kit (CisBio/Perkin Elmer 63ADK053PEG) is used to quantify the level of MYC protein in human cell lines (e.g., A549, HepG2) following treatment with test compounds, according to the following protocol. Human cells cultured in DMEM-10% FBS media are seeded at 20,000 cells per well in a 96-well plate. After 1 day, the cells are treated with test compounds at a final concentration of about 20 μM. After a 2-day incubation period, the supernatant is removed from the wells and the HTRF assay is carried out according to the kit manufacturer's protocol. In brief, lysis buffer #4 is added to create cell lysates. 10 μL of cell lysate is added to 10 μL of premixed antibody solution (anti-human My c-Eu cryptate antibody and anti-human Myc-d2 antibody) prepared in detection buffer #3 in a 384-well low-volume white-walled plated. After 3 h of incubation, fluorescence readings are taken at the emission wavelengths of donor and acceptor fluorophores (620 nm and 665 nm respectively) using a HTRF-compatible plate reader. The ratio of acceptor and donor fluorescence emission signals for each sample is calculated by dividing the fluorescence signal at 665 nm by the signal at 620 nm, and further normalized by dividing with the concentration of total protein in that sample as determined by the BCA assay. The values so obtained are presented as a percentage of that of the no-compound, solvent only (DMSO)-treated samples. A lower percentage of MYC protein in a sample with respect to the DMSO-treated sample indicates greater percentage reduction in MYC protein level due to the test compound, and vice versa.

For another assay, the system named is MYC RNA. In words: RT-qPCR of MYC RNA in human cancer cell lines. The format is cell-based. As to conditions: 24 h, about 1 μM, 1-day incubation, e.g., A549, HepG2, beta-actin normalized, vs DMSO, read-out: % reduction of MYC RNA. Here is the method: The level of reduction of MYC RNA following treatment with test compounds is assessed using RT-qPCR according to the following protocol. The human cancer cell lines (e.g., A549, HepG2) are seeded at 20,000 cells per well in a 96-well plate. After 1 day, the cells are treated with test compounds at a final concentration of about 1 μM. After a 1-day incubation period, the supernatant is removed from the wells and lysis solution from the Cells-to-CT 1-Step Power SYBR Green Kit (Invitrogen A25599) is added to create cell lysates, according to the kit manufacturer's protocol. The kit manufacturer's protocol is then followed to perform RT-qPCR for each sample using a pair of MYC-specific primers (e.g., SEQ ID NO: 4 and SEQ ID NO: 5) to detect MYC RNA, as well as a pair of beta-actin-specific primers (e.g., SEQ ID NO: 6 and SEQ ID NO: 7) to detect beta-actin RNA, which serves as a loading control. The relative expression levels of MYC and beta-actin RNAs are calculated using a standard curve generated from a dilution series of untreated cell lysates. The normalized level of MYC RNA following treatment with a test compound is calculated by dividing the relative expression level of MYC in the sample by the relative expression level of beta actin in the same sample. The value so obtained is presented as a percentage of that of the no-compound, solvent only (DMSO)-treated sample. A lower percentage of MYC RNA in a sample with respect to the DMSO-treated sample indicates greater percentage reduction in MYC RNA levels due to the test compound, and vice versa.
For orientation: Real-time PCR tracks product formation cycle by cycle.

The test system of another assay is HEK-293. In words: ApoTox-Glo Triplex assay (live-dead ratio), HEK-293. It is filed as cell-based. The conditions noted are these: Homo sapiens, HEK293, 48 h, HEK-293, 2-day incubation.

The IC50 is the concentration at which inhibition is half-maximal.

Description for A549: The effect of test compounds on cell viability is determined using the CCK-8 assay kit (Dojindo CK04-1000) according to the following protocol. The human cancer cell lines (e.g., A549, HepG2, JeKo-1, MDA-MB-231, etc.) and non-cancer human cell lines (e.g., HEK-293, HaCaT, etc.), are seeded at 20,000 cells per well in a 96-well plate. After 1 day, the cells are treated with test compounds at various final concentrations (e.g., 10 nM, 31.6 nM, 100 nM, 316 nM, 1 μM, 3.16 μM, 10 μM, 20 μM, etc.). After a 2-day or 3-day incubation period, 10 μL of CCK-8 solution, which contains the WST-8 dye, is added to each well according to the kit manufacturer's protocol. After incubation for 1-4 hours, the absorbance at 450 nm is measured using a microplate reader. The absorbance at 450 nm measures the amount of WST-8 that is reduced to WST-8 formazan by cellular dehydrogenases, which is directly proportional to the number of living cells. The cytotoxic effect of test compounds at different concentrations is calculated by subtracting from 1 the ratio of absorbance of the compound-treated sample at 450 nm to that of the no-compound, solvent only (DMSO)-treated sample. […]
Description for HEK-293: The effects of test compounds on cell viability and apoptosis are determined using the ApoTox-Glo Triplex assay kit (Promega G6320) according to the following protocol. The human cancer cell line (e.g., HepG2) and a non-cancer human cell line (e.g., HEK-293), are seeded at 20,000 cells per well in a 96-well plate. After 1 day, the cells are treated with test compounds at various final concentrations (e.g., 10 nM, 31.6 nM, 100 nM, 316 nM, 1 μM, 3.16 μM, 10 μM, 20 μM, etc.). After a 2-day incubation period, the ApoTox-Glo Triplex assay is performed according to the kit manufacturer's protocol. […] After incubation for 30 minutes at 37° C., the fluorescence signal is measured at two wavelength sets (400Ex/505Em) and (485Ex/520Em) to assess live-cell protease activity and dead-cell protease activity respectively. […] After incubation for 30 minutes at room temperature, the luminescent signal is measured using a microplate reader. […]
The cytotoxic effect of test compounds according to the ApoTox-Glo Triplex assay is calculated as follows. The live-dead ratio is calculated by dividing the fluorescence signal for live-cell protease activity with the fluorescence signal for dead-cell protease activity. […]

As to `Cc1nc(C)c(-c2ccc(=O)n(CC3CCN(c4ncnc5ncccc45)CC3)n2)s1` [6-(2,4-dimethylthiazol-5-yl)-2-((1-(pyrido[2,3-d]pyrimidin-4-yl)piperidin-4-yl)methyl)pyridazin-3(2H)-one], the IC50 turned out to be 800 nM in the assay with MDA-MB-231; 400 nM with JeKo-1; 1300 nM in the assay with A549; 100 nM in the assay with HepG2; 35900 nM in the assay with HEK-293. Further, the “Fold-change of caspase 3/7 activation” value is 1.245 in assay [1] (HepG2, compound concentration 10 nM); 1.204 in assay [1] (HepG2, compound concentration 31.6 nM); 0.853 in assay [1] (HepG2, compound concentration 100 nM); 0.586 in assay [1] (HepG2, compound concentration 316 nM); 0.420 in assay [1] (HepG2, compound concentration 1000 nM); 0.371 in assay [1] (HepG2, compound concentration 3160 nM). In addition, the “Fold-change of caspase 3/7 activation” value amounted to 0.308 in assay [1] (HepG2, compound concentration 10000 nM) and 0.280 in assay [1] (HepG2, compound concentration 20000 nM). Further, the “% reduction of MYC protein” value in the assay on MYC protein worked out at 72%. In addition, the inhibition at 1 µM in the assay on MYC RNA stood at 45%.

The values above are taken from patent US20250368623A1, “PYRIDAZINONE-DERIVED COMPOUNDS FOR THE MODULATION OF MYC AND FOR MEDICAL USES” (GENETIC INTELLIGENCE, INC, priority 2022, published 2025).
